Experiments:
[1] = tested on: T1, Mycobacteroides abscessus subsp. abscessus Mab 686; experiment: microbe, parasite or virus in culture; design: species or system Mycobacterium abscessus clinical isolates; broth microdilution MIC in Middlebrook 7H9 with OADC and Tween 80, 30 C, 3-7 days, visible growth; settings: single agent, read-out: MIC50 (μg/ml) Alone
T1 construct: clinical isolate Mab686
Description: (§1) Minimum inhibitory concentrations (MICs) of sulopenem and CXM were determined using microdilution. Approximately 5 × 10^5 colony-forming units (CFU) per milliliter were inoculated into Middlebrook 7H9 broth supplemented with 10% (vol/vol) oleic albumin dextrose catalase (OADC) and 0.05% (vol/vol) Tween 80. When CXM is combined with sulopenem, the CXM is added at a fixed concentration of 4 µg/mL to serial dilutions of sulopenem. Isolates were incubated with test agents at 30°C for 3–7 days, and MIC was defined as the lowest antibiotic concentration that prevented visible bacterial growth. We use active moiety compounds, like cefuroxime salt, and not cefuroxime axetil. The 54 clinical isolates analyzed in this study were obtained from deidentified patients. To ensure consistency and reliability, we specifically selected isolates from our well-characterized whole genome-sequenced clinical isolates belonging to the Mycobacterium abscessus subspecies abscessus. Of these, 34 isolates were sourced from National Jewish Health, whereas 11 and 9 isolates were obtained from University Hospitals Cleveland Medical Center and Cleveland Metrohealth, respectively. Additionally, ATCC 19977 was acquired from the American Type Culture Collection (ATCC). The active ingredient cefuroxime (CXM) salts and avibactam (AVI) were purchased from AchemBlock, sulopenem was sourced from Iterum Therapeutics, and durlobactam (DUR) was provided from Entasis Therapeutics. All β-lactams and BLIs were prepared in sterile, distilled water or in broth and filter-sterilized with a 0.22 µm PES syringe filter.

[2] = tested on: T2, Mycobacteroides abscessus subsp. abscessus Mab 122; experiment: microbe, parasite or virus in culture; design: species or system Mycobacterium abscessus clinical isolates; broth microdilution MIC in Middlebrook 7H9 with OADC and Tween 80, 30 C, 3-7 days, visible growth; settings: single agent, read-out: MIC50 (μg/ml) Alone
T2 construct: clinical isolate Mab122
Description: as §1

[3] = molecular target: T3, PBP B (Mycobacteroides abscessus, UniProt B1MP31); experiment: intact-protein UPLC-ESI-MS (Q-TOF); assay type: binding; settings: covalent; 1:20 enzyme:ligand, 50 mM Tris-HCl pH 7.5, 300 mM NaCl, room temperature
T3 construct: gene MAB_2000; truncated (delta 1-41), pET28a(+), E. coli BL2 (DE3), His tag cut by TEV
T3 sequence (B1MP31 42-642): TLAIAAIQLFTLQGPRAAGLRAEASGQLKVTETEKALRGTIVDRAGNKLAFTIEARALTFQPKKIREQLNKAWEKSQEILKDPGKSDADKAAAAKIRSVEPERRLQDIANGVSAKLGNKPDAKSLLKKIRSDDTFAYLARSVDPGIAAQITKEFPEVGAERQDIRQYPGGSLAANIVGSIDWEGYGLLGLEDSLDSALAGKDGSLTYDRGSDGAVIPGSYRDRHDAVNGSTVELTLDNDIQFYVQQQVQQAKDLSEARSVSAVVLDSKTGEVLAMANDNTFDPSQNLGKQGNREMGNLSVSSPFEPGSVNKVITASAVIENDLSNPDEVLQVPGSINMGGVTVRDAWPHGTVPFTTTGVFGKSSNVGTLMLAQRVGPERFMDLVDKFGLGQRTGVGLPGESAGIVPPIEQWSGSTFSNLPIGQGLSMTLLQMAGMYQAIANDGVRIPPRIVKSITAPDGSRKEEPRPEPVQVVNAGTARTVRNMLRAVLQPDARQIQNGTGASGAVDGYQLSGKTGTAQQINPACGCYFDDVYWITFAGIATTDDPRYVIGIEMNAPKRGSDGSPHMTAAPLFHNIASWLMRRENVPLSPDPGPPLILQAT

[4] = molecular target: T4, LdtMab2 (Mycobacteroides abscessus, UniProt B1MMQ4); experiment: intact-protein UPLC-ESI-MS (Q-TOF); assay type: binding; settings: covalent; 1:20 enzyme:ligand, 50 mM Tris-HCl pH 7.5, 300 mM NaCl, room temperature
T4 construct: gene MAB_1530; truncated (delta 1-41), pET28a(+), E. coli BL2 (DE3), His tag cut by TEV
T4 sequence (B1MMQ4 42-406): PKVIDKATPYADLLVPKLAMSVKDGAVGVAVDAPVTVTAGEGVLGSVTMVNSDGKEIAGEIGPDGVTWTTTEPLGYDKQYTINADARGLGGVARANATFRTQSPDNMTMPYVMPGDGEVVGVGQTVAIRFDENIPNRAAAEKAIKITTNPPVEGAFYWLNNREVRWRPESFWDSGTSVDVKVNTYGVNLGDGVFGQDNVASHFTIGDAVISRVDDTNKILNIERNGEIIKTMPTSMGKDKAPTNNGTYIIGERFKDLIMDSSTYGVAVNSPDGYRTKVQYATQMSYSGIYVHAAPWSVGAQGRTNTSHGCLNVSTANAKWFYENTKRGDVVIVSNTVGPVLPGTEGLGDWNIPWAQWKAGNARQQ

C[C@@H](O)[C@H]1C(=O)N2C(C(=O)O)=C(S[C@H]3CC[S@@+]([O-])C3)S[C@H]12 [sulopenem]
MIC50 [1]: 2 µg/mL
MIC50 [2]: 0.5 µg/mL

NC(=O)[C@@H]1CC[C@@H]2CN1C(=O)N2OS(=O)(=O)O [avibactam]
MIC50 [1]: > 128 µg/mL
MIC50 [2]: > 128 µg/mL

CO/N=C(\C(=O)N[C@@H]1C(=O)N2C(C(=O)O)=C(COC(N)=O)CS[C@H]12)c1ccco1 [cefuroxime]
MIC50 [1]: 8 µg/mL
MIC50 [2]: 4 µg/mL
intact-protein UPLC-ESI-MS (Q-TOF) [3]: CXM engaged solely with LdtMab2 and PBP B
intact-protein UPLC-ESI-MS (Q-TOF) [4]: CXM engaged solely with LdtMab2 and PBP B

From article PMC11237399, “Synergistic effects of sulopenem in combination with cefuroxime or durlobactam against Mycobacterium abscessus” (mBio, 2024)
